Where two headings read alike, the source gives them in different places.
Assays:
HCT116 MTAP null cells = assay: HCT116 MTAP null cell line proliferation (CellTiter-Glo cell viability, 6 days); format: cell-based; details: HCT116 MTAP null cells, 6 days of treatment, CellTiter-Glo cell viability, read-out: HCT-116 MTAP null IC50
Method in brief: (§1)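 Isogenic HCT116 pair (parent and MTAP double-allele knockout) in RPMI 1640 + 10% FBS, exposed 6 days to compound: 8–9-point 1:3 dilutions from 1 or 10 μM top, or 22-point 1:2 dilutions from 10 or 50 μM top. CellTiter-Glo luminescence; IC50 from sigmoidal fit (Hill −1) or 4-parameter logistic.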

HCT116 WT cells = assay: HCT116 WT cell line proliferation (CellTiter-Glo cell viability, 6 days); format: cell-based; details: HCT116 WT (parent) cells, 6 days of treatment, CellTiter-Glo cell viability, read-out: HCT-116 WT IC50
Method in brief: as §1

Structure (SMILES) | IC50 (HCT116 MTAP null cells; HCT116-MTAP null, 144 h) [nM] | IC50 (HCT116 WT cells; Homo sapiens, HCT-116, 144 h) [nM] | IC50 (HCT116 MTAP null cells) [nM] | IC50 (HCT116 WT cells) [nM]
Cn1ncc2c(N)nc3cc(Cl)c(C(=O)N4CCC(c5ccc(C(F)(F)F)cn5)C4)cc3c21 (racemic) [Example 543, (4-amino-7-chloro-1-methyl-1H-pyrazolo[4,3-c]quinolin-8-yl)((3R)-3-(5-(trifluoromethyl)-2-pyridinyl)-1-pyrrolidinyl)methanone and (4-amino-7-chloro-1-methyl-1H-pyrazolo[4,3-c]quinolin-8-yl)((3S)-3-(5-(trifluoromethyl)-2-pyridinyl)-1-pyrrolidinyl)methanone] | 18 | 1860 | – | –
COc1ccc([C@H]2COC[C@@H](C)N2C(=O)c2cc3c4c(c(N)nc3cn2)COC4)nn1 (relative stereo) [Example 491, (4-amino-1,3-dihydrofuro[3,4-c][1,7]naphthyridin-8-yl)((3S,5R)-3-(6-methoxypyridazin-3-yl)-5-methylmorpholino)methanone] | 108 | 4380 | – | –
C[C@H]1OCc2c1c(N)nc1cnc(C(=O)N3CCOC[C@@H]3c3ccc(C(F)(F)F)cc3)cc21 (single isomer, unassigned) [Example 452] | 49 | 3460 | – | –
C[C@@H]1OCc2c1c(N)nc1cnc(C(=O)N3CCOC[C@@H]3c3ccc(C(F)(F)F)cc3)cc21 (single isomer, unassigned) [Example 453] | 2180 | 40300 | – | –
C[C@H]1OCc2c1c(N)nc1cnc(C(=O)N3CCOC[C@@H]3c3ccc(C(F)(F)C(F)(F)F)cc3)cc21 (single isomer, unassigned) [Example 454] | 24 | 778 | – | –
Nc1nc2ccc(C(=O)N3CCOC[C@H]3c3ccc(C(F)(F)F)cc3)cc2c2c1COC2 (single isomer, unassigned) [Example 455] | > 1000 | > 10000 | – | –
Nc1nc2ccc(C(=O)N3CCOC[C@@H]3c3ccc(C(F)(F)F)cc3)cc2c2c1COC2 (single isomer, unassigned) [Example 456] | 102 | 4360 | – | –
Nc1nc2cnc(C(=O)N3CCOC[C@H]3c3ccc(S(F)(F)(F)(F)F)cc3)cc2c2c1COC2 (single isomer, unassigned) [Example 457] | 8710 | 18600 | – | –
Nc1nc2cnc(C(=O)N3CCOC[C@@H]3c3ccc(S(F)(F)(F)(F)F)cc3)cc2c2c1COC2 (single isomer, unassigned) [Example 458] | 18 | 454 | – | –
Nc1nc2cnc(C(=O)N3CCOC[C@@H]3c3ncc(Br)cc3F)cc2c2c1COC2 (single isomer, unassigned) [Example 459] | 72 | 6140 | – | –
Nc1nc2cc(F)c(C(=O)N3CCOC[C@@H]3c3ncc(Br)cc3F)cc2c2c1COC2 (single isomer, unassigned) [Example 460] | 30 | 1810 | – | –
CC[C@@H]1CN(C(=O)c2ccc3nc(N)c4c(c3c2)CO[C@@H]4C)C[C@H]1c1ccc(C)cc1 (single isomer, unassigned) [Example 461] | 864 | 14600 | – | –
C[C@H]1OCc2c1c(N)nc1ccc(C(=O)N3C[C@@H](c4ccc(F)cc4)C(C)(C)C3)cc21 (single isomer, unassigned) [Example 462] | 595 | 14100 | – | –
C[C@H]1OCc2c1c(N)nc1ccc(C(=O)N3C[C@H](c4ccc(F)cc4)C(C)(C)C3)cc21 (single isomer, unassigned) [Example 463] | 122 | 6550 | – | –
Cc1ccc([C@@H]2CN(C(=O)c3cc4c5c(c(N)nc4cc3F)COC5)CC2(C)C)cc1 (single isomer, unassigned) [Example 464] | 195 | 5470 | – | –
CC1(C)CN(C(=O)c2cc3c4c(c(N)nc3cc2F)COC4)C[C@H]1c1ccc(F)cc1 (single isomer, unassigned) [Example 465] | 71 | 3510 | – | –
C[C@H]1OCc2c1c(N)nc1ccc(C(=O)N3C[C@@H](O)[C@H](c4ccc(Cl)cc4)C3)cc21 (single isomer, unassigned) [Example 466] | 189 | 16600 | – | –

Structure (SMILES) | IC50 (HCT116 MTAP null cells; HCT116-MTAP null, 144 h) [nM] | IC50 (HCT116 WT cells; Homo sapiens, HCT-116, 144 h) [nM] | IC50 (HCT116 MTAP null cells) [nM] | IC50 (HCT116 WT cells) [nM]
C[C@H]1OCc2c1c(N)nc1ccc(C(=O)N3C[C@H](c4ccc(Cl)cc4)[C@@H](O)C3)cc21 (single isomer, unassigned) [Example 467] | 982 | 31200 | – | –
Nc1nc2cc(F)c(C(=O)N3CC[C@H](c4ccc(C(F)(F)F)cc4)C3)cc2c2c1COC2 (single isomer, unassigned) [Example 468] | 417 | 37400 | – | –
Cn1ncc2c(N)nc3cc(F)c(C(=O)N4CC[C@@H](Cc5ccc(C(F)(F)F)cc5)C4)cc3c21 (single isomer, unassigned) [Example 469] | 243 | 4950 | – | –
Cn1ncc2c(N)nc3cc(F)c(C(=O)N4CC[C@H](Cc5ccc(C(F)(F)F)cc5)C4)cc3c21 (single isomer, unassigned) [Example 470] | 340 | 5300 | – | –
Cn1ncc2c(N)nc3cc(F)c(C(=O)N4CC[C@@H](Oc5ccc(C(F)(F)F)cc5)C4)cc3c21 (single isomer, unassigned) [Example 471] | 283 | 6010 | – | –
Cn1ncc2c(N)nc3cc(F)c(C(=O)N4CC[C@H](Oc5ccc(C(F)(F)F)cc5)C4)cc3c21 (single isomer, unassigned) [Example 472] | 190 | 4470 | – | –
CC1(C)CN(C(=O)c2cc3c4c(c(N)nc3cc2F)COC4)C[C@@H]1c1ccc(C(F)(F)F)cc1 (single isomer, unassigned) [Example 473] | 17 | 556 | – | –
Cn1ncc2c(N)nc3cc(F)c(C(=O)N4CC[C@@H](Oc5ccc(C(F)(F)F)cn5)C4)cc3c21 (single isomer, unassigned) [Example 474] | – | 6420 | 842 | –
Cn1ncc2c(N)nc3cc(F)c(C(=O)N4CC[C@@H](Oc5ccc(C(F)(F)F)cn5)C4)cc3c21 (single isomer, unassigned) [Example 475] | – | – | 175 | 9490
Nc1nc2cc(Cl)c(C(=O)N3C[C@@H](c4ccc(F)cc4)[C@H](c4cc[nH]n4)C3)cc2c2c1COC2 (single isomer, unassigned) [Example 476] | 68 | 1560 | – | –
Nc1nc2cc(Cl)c(C(=O)N3CC[C@@](O)(c4ccc(C(F)(F)F)cc4)C3)cc2c2c1COC2 (single isomer, unassigned) [Example 477] | 547 | > 50000 | – | –
CC1(C)CN(C(=O)c2cc3c4c(c(N)nc3cc2F)COC4)C[C@H]1c1ccc(Br)cc1 (single isomer, unassigned) [Example 478] | 31 | 1950 | – | –
COC(=O)[C@H]1CN(C(=O)c2cc3c4c(c(N)nc3cc2F)COC4)C[C@@H]1c1ccc(C(F)(F)F)cc1 (single isomer, unassigned) [Example 479] | 577 | 18900 | – | –
COC(=O)[C@@H]1CN(C(=O)c2cc3c4c(c(N)nc3cc2F)COC4)C[C@H]1c1ccc(C(F)(F)F)cc1 (single isomer, unassigned) [Example 480] | 92 | 1750 | – | –
Nc1nc2cnc(C(=O)N3CCOC[C@@H]3c3ccc(C(F)(F)F)cc3)cc2c2c1COC2 (single isomer, unassigned) [Example 481] | 107 | 4330 | – | –
Nc1nc2cnc(C(=O)N3CCOC[C@H]3c3ccc(C(F)(F)F)cc3)cc2c2c1COC2 (single isomer, unassigned) [Example 482] | > 1000 | > 10000 | – | –

— patent publication US11845760B2, “PRMT5 inhibitors” (AMGEN INC., priority 2020, dated 2023)
